Reference: article PMC10849753, “Antiproliferative activity of platinum(II) and copper(II) complexes containing novel biquinoxaline ligands” (Metallomics: Integrated Biometal Science, 2024)

Tests used:
[1] = biological target: T1, human serum albumin (HSA) (Homo sapiens, UniProt P02768); experiment: UV titration with HSA; conditions: binding to HSA, 310-340 K
Method: The change in the electronic absorption spectrum of the complexes in the presence and the absence of CT-DNA was followed using an HP Agilent8453 Spectrophotometer. During the measurements, the concentration of the compounds was kept constant [Cu(tpbq)Cl2 = 3.0 × 10^−3 M; Cu(ttbq)Cl2 = 0.50 × 10^−3 M; Pt(tpbq)Cl2 = 3.0 × 10^−3 M; Pt(ttbq)Cl2 = 3.0 × 10^−3 M)], while the CT-DNA concentration was changed depending on the R (R=[DNA]/[complex]) value of 0 to 10. […] The optimal incubation time was determined as 30 min for Cu(ttbq)Cl2, 60 min for Pt(tpbq)Cl2, and 45 min for Cu(tpbq)Cl2 and Pt(ttbq)Cl2 at 37°C spectroscopically. […] The optimal incubation time for HSA binding titrations was determined as 30 min for Cu(ttbq)Cl2 and Pt(ttbq)Cl2, and 60 min for Cu(tpbq) Cl2 and Pt(tpbq)Cl2 spectroscopically.[37]

[2] = biological target: T1, human serum albumin (HSA); experiment: HSA fluorescence quenching titration; assay type: binding; design: unit not given here; conditions: 1 μM HSA, 0-50 μM complexes
Method: Tests involving fluorescence titration were conducted by maintaining the concentration of 1 μM HSA and changing the concentrations of the complexes between 0 and 50 μM in 5 mM Tris HCl buffer. The fluorescence spectral measurements were made at […] to 500 nm after exciting the solution at 280 nm.

[3] = biological target: T1, human serum albumin (HSA); experiment: HSA thermal denaturation; assay type: binding; conditions: HSA alone 114°C; 280 nm
Method: The HSA thermal decomposition was followed at 280 nm upon increasing the temperature from 30°C to 130°C at a 1°C min^−1 rate from the spectral change. In order to better examine the processes involving the interaction of metal complexes and protein structure, viscometric titration was carried out in the same manner as for the nucleic acid.

A172 cells = experiment: MTT cell viability assay; assay type: cell-based, human
Method: (§1) Cell culture growth conditions: Selected cancer cell lines from different origins, including human glioblastoma A172 (CRL-1620), LN229 (CRL-2611), U87 (HTB-14) cell lines, human cervix HeLa (ATCC, CCL-2), human breast MDA -231 (HTB-26), human prostate PC-3 (ATCC, CRL-1435), human lung A-549 (CCL-185), and non-cancer Chinese hamster ovary CHOK1 cell line (CCL61) (which was used as control) were purchased from American Type Culture Collection (ATCC, USA). These cultures were grown in Dulbecco's modified Eagle's medium-F12 (DMEM/F12, #D0547, Sigma-Aldrich) supplemented with 5% fetal bovine serum (#10500, Gibco) and 1% antibiotic-antimycotic (#15240, Gibco), and incubated at 37°C and 5% CO2. They were harvested and used for the following assays after reaching 70–80% confluency.
(§2) The used cell lines (A172, LN229, U87, HeLa, MDA-231, PC-3, A549, and CHO-K1) were harvested and seeded (6 × 10^3 cells/well) into the 96-well plates and incubated at 37°C and 5% CO2 for 24 h. After that, the synthesized Cu(II) and Pt(II) complexes, at a concentration range of 6.25 to 100 μM in DMEM-F12, were added to the cell monolayers and incubated at 37°C and 5% CO2 for 24, 48, and 72 h. The dose–response relationships of the synthesized complexes were determined by using an MTT colorimetric agent (3-[4,5-dimethylthiazol-2-yl]-2,5-diphenyltetrazolium bromide, #M5655, Sigma-Aldrich), which is reduced by the mitochondrial enzymes of the metabolically active live cells and converted into a purple formazan product. The MTT stock solution was later dissolved in a phosphate buffer solution (PBS, 5 mg/ml, w/v) and, then, 5 μg/ml of MTT in DMEM was added into each well and incubated at 37°C and 5% CO2 for 4 h. DMSO (#D 8418, Sigma-Aldrich), as a dissolving solution for formazan crystals, was added into each well and placed in a shaker for 2 h. The absorbance at a test wavelength of 570 nm and a reference wavelength of 630 nm was measured on a microplate reader.

HeLa cells [4] = experiment: MTT cell viability assay; assay type: cell-based, human
Method: as §1, §2

LN229 cells = experiment: MTT cell viability assay; assay type: cell-based, human
Method: as §1, §2

HeLa cells [5] = experiment: Apoptosis, TUNEL assay; assay type: cell-based, human; conditions: 50 and 100 μM, 24 h
Method: (§3) The sensitive U87 and HeLa cell lines, selected according to the results of the IC50 values of the examined Cu(II) and Pt(II) complexes, were seeded at a seeding cell number of 5 × 10^4 cells on the 12 mm round cover slips placed in the 24-well plate and incubated at 37°C and 5% CO2 for 24 h. The following day, the Cu(dpq)Cl2, Cu(dtq)Cl2, Pt(dpq)Cl2 and Pt(dtq)Cl2 complexes were freshly prepared and added at a range of 50 and 100 μM to the cell monolayers. After a 24 h incubation time, the cell monolayers were fixed with 4% paraformaldehyde for 15 min at room temperature and, then, the terminal deoxynucleotidyl transferase (TdT)-mediated dUTP nick end labeling (TUNEL) method was applied to detect the DNA damage associated with apoptosis. A commercial assay kit, In Situ Cell Death Detection Kit (Roche, #11767291910), was used for this purpose in accordance to the manufacturer's instructions. The experiment was repeated twice with the tested cell lines, and images were recorded with using a Leica DMI 6000 fluorescence microscope with 40× magnification.

U87 cells = experiment: Apoptosis, TUNEL assay; assay type: cell-based, human; conditions: U87, 50 and 100 μM, 24 h
Method: as §3

HeLa cells [6] = experiment: Matrigel invasion analysis; assay type: cell-based, human; conditions: 6.25 and 12.5 μM, 24 h, vs negative control
Method: The analysis was completed with U87 and HeLa cell lines to assess the metastatic potential of tumor cells using transwell inserts with an 8 μm pore size polycarbonate membrane (Corning Costar, Cambridge, MA, USA) coated with 1/5 of Matrigel (Beckton Dickinson, Bedford, MA, USA) and air-dried at room temperature. After seeding the U87 and HeLa cell lines (3 × 10^5cells/insert), the complex concentrations were selected as 6.25 or 12.5 μM and incubated at 37°C in a humidified incubator with 5% CO2 for 24 h. The cell monolayers in the transwell inserts were fixed with ice-cold methanol and stained with 0.05% crystal violet for the analysis. The invasion of the cells to the basolateral side of the inserts was investigated using a light microscope with 40× magnification.

T1 sequence (P02768 25-609): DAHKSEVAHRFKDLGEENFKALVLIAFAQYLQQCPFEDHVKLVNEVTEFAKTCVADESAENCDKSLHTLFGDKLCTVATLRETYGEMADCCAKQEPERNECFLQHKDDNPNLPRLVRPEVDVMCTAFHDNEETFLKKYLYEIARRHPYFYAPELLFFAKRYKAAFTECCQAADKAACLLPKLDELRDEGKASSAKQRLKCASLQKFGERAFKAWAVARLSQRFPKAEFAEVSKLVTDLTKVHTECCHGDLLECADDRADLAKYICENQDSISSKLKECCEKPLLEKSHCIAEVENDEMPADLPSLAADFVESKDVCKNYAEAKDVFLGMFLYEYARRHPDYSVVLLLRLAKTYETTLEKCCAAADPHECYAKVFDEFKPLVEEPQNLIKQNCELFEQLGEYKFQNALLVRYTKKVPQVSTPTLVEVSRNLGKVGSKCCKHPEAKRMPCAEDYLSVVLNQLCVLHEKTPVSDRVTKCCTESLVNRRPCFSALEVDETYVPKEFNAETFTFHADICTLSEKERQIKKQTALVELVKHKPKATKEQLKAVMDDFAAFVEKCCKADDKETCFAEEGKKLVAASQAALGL

[Cl][Cu][Cl].c1ccc(-c2nc3ccc(-c4ccc5nc(-c6ccccn6)c(-c6ccccn6)nc5c4)cc3nc2-c2ccccn2)nc1 [Cu(tpbq)Cl2]
ΔG^o (standard Gibbs free energy change) [1]: -19800 J
ΔH^o (standard enthalpy change) [1]: 120800 J
ΔS^o (standard entropy change) [1]: 458.15 J/K
KSV (Stern–Volmer quenching constant) [2]: 0.0059
melting point of HSA upon addition of the complex [3]: 110 °C
IC50 (A172 cells; A172, 24 h exposure): > 100 µM
IC50 (A172 cells; A172, 48 h exposure): > 100 µM
IC50 (A172 cells; A172, 72 h exposure): 92 ± 7.46 µM
IC50 (HeLa cells [4]; 24 h exposure): > 100 µM
IC50 (HeLa cells [4]; 48 h exposure): > 100 µM
IC50 (HeLa cells [4]; 72 h exposure): > 100 µM
IC50 (LN229 cells; LN229, 24 h exposure): > 100 µM
IC50 (LN229 cells; LN229, 48 h exposure): > 100 µM
IC50 (LN229 cells; LN229, 72 h exposure): > 100 µM
apoptosis (DNA fragmentation, TUNEL) (HeLa cells [5]): none of which induced any apoptosis
apoptosis (DNA fragmentation, TUNEL) (U87 cells): none of which induced any apoptosis
anti-invasive effect (HeLa cells [6]): did not have any anti-invasive effect

[Cl][Pt][Cl].c1csc(-c2nc3ccc(-c4ccc5nc(-c6cccs6)c(-c6cccs6)nc5c4)cc3nc2-c2cccs2)c1 [Pt(ttbq)Cl2]
ΔG^o (standard Gibbs free energy change) [1]: -28600 J
ΔH^o (standard enthalpy change) [1]: 33200 J
ΔS^o (standard entropy change) [1]: 198.00 J/K
KSV (Stern–Volmer quenching constant) [2]: 0.0589
melting point of HSA upon addition of the complex [3]: 105 °C
IC50 (A172 cells; A172, 24 h exposure): 93.5 ± 18.4 µM
IC50 (A172 cells; A172, 48 h exposure): 65.5 ± 17.7 µM
IC50 (A172 cells; A172, 72 h exposure): 49.5 ± 5.73 µM
IC50 (HeLa cells [4]; 24 h exposure): 88.9 ± 8.31 µM
IC50 (HeLa cells [4]; 48 h exposure): 79.7 ± 24.2 µM
IC50 (HeLa cells [4]; 72 h exposure): > 100 µM
IC50 (LN229 cells; LN229, 24 h exposure): 67.9 ± 16.3 µM
IC50 (LN229 cells; LN229, 48 h exposure): 44.8 ± 11.6 µM
IC50 (LN229 cells; LN229, 72 h exposure): 38.8 ± 1.46 µM
apoptosis (DNA fragmentation, TUNEL) (HeLa cells [5]): apoptosis on HeLa cells was only observed
apoptosis (DNA fragmentation, TUNEL) (U87 cells): none of which induced any apoptosis
anti-invasive effect (HeLa cells [6]): higher potency to prevent the invasion

[Cl][Cu][Cl].c1csc(-c2nc3ccc(-c4ccc5nc(-c6cccs6)c(-c6cccs6)nc5c4)cc3nc2-c2cccs2)c1 [Cu(ttbq)Cl2]
ΔG^o (standard Gibbs free energy change) [1]: -27900 J
ΔH^o (standard enthalpy change) [1]: 53100 J
ΔS^o (standard entropy change) [1]: 258.51 J/K
KSV (Stern–Volmer quenching constant) [2]: 0.0720
melting point of HSA upon addition of the complex [3]: 111 °C
IC50 (A172 cells; A172, 24 h exposure): 69.44 ± 0.19 µM
IC50 (A172 cells; A172, 48 h exposure): 63.9 ± 3.56 µM
IC50 (A172 cells; A172, 72 h exposure): 57.4 ± 13.7 µM
IC50 (HeLa cells [4]; 24 h exposure): 67.5 ± 2.78 µM
IC50 (HeLa cells [4]; 48 h exposure): 74.22 ± 0.45 µM
IC50 (HeLa cells [4]; 72 h exposure): 65 ± 2.75 µM
IC50 (LN229 cells; LN229, 24 h exposure): 42 ± 14 µM
IC50 (LN229 cells; LN229, 48 h exposure): 36 ± 6.38 µM
IC50 (LN229 cells; LN229, 72 h exposure): 54 ± 3.1 µM
apoptosis (DNA fragmentation, TUNEL) (HeLa cells [5]): none of which induced any apoptosis
apoptosis (DNA fragmentation, TUNEL) (U87 cells): apoptotic potential of the U87 cells was observed
anti-invasive effect (HeLa cells [6]): high anti-invasive effects

[Cl][Pt][Cl].c1ccc(-c2nc3ccc(-c4ccc5nc(-c6ccccn6)c(-c6ccccn6)nc5c4)cc3nc2-c2ccccn2)nc1 [Pt(tpbq)Cl2]
ΔG^o (standard Gibbs free energy change) [1]: -31400 J
ΔH^o (standard enthalpy change) [1]: 22900 J
ΔS^o (standard entropy change) [1]: 174.97 J/K
KSV (Stern–Volmer quenching constant) [2]: 0.0261
melting point of HSA upon addition of the complex [3]: 109 °C
IC50 (A172 cells; A172, 24 h exposure): 94.3 ± 12.3 µM
IC50 (A172 cells; A172, 48 h exposure): 39.4 ± 15.8 µM
IC50 (A172 cells; A172, 72 h exposure): 73.67 ± 0.28 µM
IC50 (HeLa cells [4]; 24 h exposure): > 100 µM
IC50 (HeLa cells [4]; 48 h exposure): 58 ± 26.9 µM
IC50 (HeLa cells [4]; 72 h exposure): 42.9 ± 1.69 µM
IC50 (LN229 cells; LN229, 24 h exposure): > 100 µM
IC50 (LN229 cells; LN229, 48 h exposure): 91.9 ± 49 µM
IC50 (LN229 cells; LN229, 72 h exposure): 83.9 ± 3.16 µM
apoptosis (DNA fragmentation, TUNEL) (HeLa cells [5]): none of which induced any apoptosis
apoptosis (DNA fragmentation, TUNEL) (U87 cells): apoptotic potential of the U87 cells was observed
anti-invasive effect (HeLa cells [6]): high anti-invasive effects
